{
  "source": "paper PMC10303271",
  "about": "“Synthesis and Receptor Binding Studies of α5 GABAAR Selective Novel Imidazodiazepines Targeted for Psychiatric and Cognitive Disorders” (Molecules, 2023)",
  "key": {"MOR": {"biological_target": "T1, MOR (Homo sapiens, UniProt P35372)", "T1 construct": "purchased NIMH Psychoactive Drug Screening Program (PDSP)", "T1 sequence (P35372 whole entry)": "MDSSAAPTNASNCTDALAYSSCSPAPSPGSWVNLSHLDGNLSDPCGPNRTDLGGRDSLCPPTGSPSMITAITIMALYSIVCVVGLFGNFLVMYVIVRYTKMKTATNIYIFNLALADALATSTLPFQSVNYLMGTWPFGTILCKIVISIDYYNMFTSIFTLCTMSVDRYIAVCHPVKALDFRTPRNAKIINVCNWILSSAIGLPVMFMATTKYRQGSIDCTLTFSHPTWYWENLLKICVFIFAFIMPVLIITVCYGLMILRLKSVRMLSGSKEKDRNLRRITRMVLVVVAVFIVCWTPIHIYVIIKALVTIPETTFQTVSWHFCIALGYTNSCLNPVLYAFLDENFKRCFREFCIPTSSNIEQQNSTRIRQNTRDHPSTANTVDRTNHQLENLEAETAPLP", "experiment": "PDSP radioligand binding at MOR", "details": "1.5 h; primary binding, 10,000 nM; last figure of the line = mean of the 4 before it; read-out: MOR, PDSP raw data, mean", "source_text": "Opioid receptors are a family of inhibitory G-coupled protein receptors where opioids act as the ligand. The kappa opioid receptors (KOR), µ and δ opioid receptors (MOR and DOR), and nociception opioid receptor (NOP) fall under the family of opioids receptors. It has been reported that oxadiazole imidazodiazepines can mediate analgesic and anti-inflammatory properties mediated also by the κ opioid receptor (KOR). The binding at KOR is usually silent. The affinities of the test compounds for KOR, DOR, and MOR were determined using radioligand binding assays at a screening concentration of 10,000 nM in collaboration with the National Institute of Mental Health’s Psychoactive Drug Screening Program (PDSP), as mentioned before. Concentration-dependent experiments were conducted to determine Ki values for the compounds that exceeded more than 50% radioligand displacement in primary binding assays.\n(§1) The NIMH PDSP assay protocol book [https://kidbdev.med.unc.edu/databases/PDSP%20Protocols%20II%202013-03-28.pdf accessed on 23 April 2023]. describes the protocols for primary and secondary radio-ligand binding assays. These assays were carried out in a final volume of 125 µL per well in the appropriate binding buffer.\n(§2) The binding of a ligand to a receptor, ion channel, or transporter was determined in the […] of 10 µM of the appropriate reference compound. […] Plates were incubated in the dark for 90 min at rt, and the reactions were stopped by vacuum filtration onto 0.3% polyethyleneimine (PEI) soaked 96-well filter mats using a 96-well Filtermateharvester. This was followed by three washes with cold PBS buffer. Radioactivity was then counted on a Microbeta counter. Nonlinear regression was used to analyze the data with N = 6 replicates."}, "5-HT2B": {"biological_target": "T2, 5-HT2B (Homo sapiens, UniProt P41595)", "T2 construct": "purchased NIMH Psychoactive Drug Screening Program (PDSP)", "T2 sequence (P41595 whole entry)": "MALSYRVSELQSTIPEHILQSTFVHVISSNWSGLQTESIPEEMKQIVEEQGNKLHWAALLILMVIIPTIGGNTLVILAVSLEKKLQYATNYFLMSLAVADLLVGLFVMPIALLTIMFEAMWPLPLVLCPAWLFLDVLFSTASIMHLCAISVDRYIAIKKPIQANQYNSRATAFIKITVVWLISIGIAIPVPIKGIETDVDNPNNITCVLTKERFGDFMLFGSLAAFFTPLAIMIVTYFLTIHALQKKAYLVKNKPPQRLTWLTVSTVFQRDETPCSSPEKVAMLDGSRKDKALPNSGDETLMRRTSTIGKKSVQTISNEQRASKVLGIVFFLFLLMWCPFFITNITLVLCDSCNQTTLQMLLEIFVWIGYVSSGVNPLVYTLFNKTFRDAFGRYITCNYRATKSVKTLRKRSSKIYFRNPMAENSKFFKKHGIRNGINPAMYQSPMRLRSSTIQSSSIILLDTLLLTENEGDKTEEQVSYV", "experiment": "PDSP primary binding 5-HT2B", "details": "1.5 h; primary binding, 10,000 nM; last figure of the line = mean of the 4 before it; read-out: 5-HT2B, PDSP raw data, mean", "description": "(§3) To determine if any off-target receptor-binding effects are present, all the novel ligands were sent to the National Institute of Mental Health (NIMH), Psychoactive Drug Screening Program (PDSP). The ligands were screened over a panel of 47 receptors, ion channels, and transporters to determine any other possible interactions with […]. The hERG-binding was also determined. […] No binding of the test compounds to calcium channels was observed. […] It is necessary to screen the compounds for hERG-binding during the early process of drug discovery. The unintentional binding of many drugs to hERG can cause blockade of hERG K+ channels in the heart, which can cause many side effects including cardiac arrhythmias and sudden death. […] All of the α5 imidazodiazepines were tested for hERG-binding.\nas §1, §2"}, "A1": {"biological_target": "T3, A1 (Homo sapiens, UniProt P30542)", "T3 construct": "purchased NIMH Psychoactive Drug Screening Program (PDSP)", "T3 sequence (P30542 1-326)": "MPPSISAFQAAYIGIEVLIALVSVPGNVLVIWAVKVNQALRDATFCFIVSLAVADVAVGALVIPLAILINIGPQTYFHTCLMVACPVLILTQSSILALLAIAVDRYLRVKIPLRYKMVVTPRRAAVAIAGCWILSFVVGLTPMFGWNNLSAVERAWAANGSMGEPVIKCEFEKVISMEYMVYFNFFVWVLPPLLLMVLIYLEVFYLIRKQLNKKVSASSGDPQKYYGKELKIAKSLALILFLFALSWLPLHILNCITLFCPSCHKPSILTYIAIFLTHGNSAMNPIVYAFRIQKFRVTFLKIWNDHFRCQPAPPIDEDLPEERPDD", "experiment": "PDSP primary binding A1", "details": "1.5 h; primary binding, 10,000 nM; last figure of the line = mean of the 4 before it; read-out: A1, PDSP raw data, mean", "description": "as §3, §1, §2"}, "Alpha2C": {"biological_target": "T4, Alpha2C (Homo sapiens, UniProt P18825)", "T4 construct": "purchased NIMH Psychoactive Drug Screening Program (PDSP)", "T4 sequence (P18825 1-462)": "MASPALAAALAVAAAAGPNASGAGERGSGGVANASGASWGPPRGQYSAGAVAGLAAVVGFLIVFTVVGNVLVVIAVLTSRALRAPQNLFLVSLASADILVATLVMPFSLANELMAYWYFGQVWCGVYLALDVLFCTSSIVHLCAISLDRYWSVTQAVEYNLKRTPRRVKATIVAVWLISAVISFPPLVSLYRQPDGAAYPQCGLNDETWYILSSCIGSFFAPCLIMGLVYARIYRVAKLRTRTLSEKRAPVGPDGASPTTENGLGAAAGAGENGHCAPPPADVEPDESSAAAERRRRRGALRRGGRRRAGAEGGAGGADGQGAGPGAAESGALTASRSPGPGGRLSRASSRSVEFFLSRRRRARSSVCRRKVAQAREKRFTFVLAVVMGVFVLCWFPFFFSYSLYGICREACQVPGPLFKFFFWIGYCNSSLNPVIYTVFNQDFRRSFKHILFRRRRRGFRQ", "experiment": "PDSP primary binding Alpha2C", "details": "1.5 h; primary binding, 10,000 nM; last figure of the line = mean of the 4 before it; read-out: Alpha2C, PDSP raw data, mean", "description": "as §3, §1, §2"}, "D2": {"biological_target": "T5, D2 (Homo sapiens, UniProt P14416)", "T5 construct": "purchased NIMH Psychoactive Drug Screening Program (PDSP)", "T5 sequence (P14416 whole entry)": "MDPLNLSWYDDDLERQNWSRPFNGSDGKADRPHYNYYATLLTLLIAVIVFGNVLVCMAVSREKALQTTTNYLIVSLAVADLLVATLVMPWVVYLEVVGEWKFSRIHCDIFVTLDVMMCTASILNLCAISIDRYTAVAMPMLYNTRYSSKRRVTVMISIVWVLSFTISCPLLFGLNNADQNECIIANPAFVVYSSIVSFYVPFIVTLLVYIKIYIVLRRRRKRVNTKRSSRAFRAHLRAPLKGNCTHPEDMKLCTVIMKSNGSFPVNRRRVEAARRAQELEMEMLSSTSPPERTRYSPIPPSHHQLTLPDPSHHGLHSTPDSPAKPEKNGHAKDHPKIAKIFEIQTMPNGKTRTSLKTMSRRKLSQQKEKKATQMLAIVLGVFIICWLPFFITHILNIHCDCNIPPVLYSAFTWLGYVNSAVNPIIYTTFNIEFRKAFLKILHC", "experiment": "PDSP primary binding D2", "details": "1.5 h; primary binding, 10,000 nM; last figure of the line = mean of the 4 before it; read-out: D2, PDSP raw data, mean", "description": "as §3, §1, §2"}, "M5": {"biological_target": "T6, M5 (Homo sapiens, UniProt P08912)", "T6 construct": "purchased NIMH Psychoactive Drug Screening Program (PDSP)", "T6 sequence (P08912 1-532)": "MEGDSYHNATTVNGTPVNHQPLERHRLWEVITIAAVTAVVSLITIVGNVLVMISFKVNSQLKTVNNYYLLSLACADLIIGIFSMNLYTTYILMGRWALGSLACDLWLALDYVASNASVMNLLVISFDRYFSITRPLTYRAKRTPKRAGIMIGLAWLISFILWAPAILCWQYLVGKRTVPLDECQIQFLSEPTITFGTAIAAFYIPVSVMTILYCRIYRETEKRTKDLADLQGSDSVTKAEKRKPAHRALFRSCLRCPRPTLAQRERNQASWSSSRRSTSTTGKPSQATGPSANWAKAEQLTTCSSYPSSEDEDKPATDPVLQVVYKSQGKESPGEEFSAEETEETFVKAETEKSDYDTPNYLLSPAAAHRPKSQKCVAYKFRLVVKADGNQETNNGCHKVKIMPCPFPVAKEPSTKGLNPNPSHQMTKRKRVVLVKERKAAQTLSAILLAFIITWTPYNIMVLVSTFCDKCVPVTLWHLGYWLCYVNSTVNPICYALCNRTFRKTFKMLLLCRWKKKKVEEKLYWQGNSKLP", "experiment": "PDSP primary binding M5", "details": "primary binding, 10,000 nM; last figure of the line = mean of the 4 before it; read-out: M5, PDSP raw data, mean", "description": "as §3, §1, §2"}},
  "data": [
    {"molecule": "CCc1noc(-c2ncn3c2[C@@H](C)N=C(c2ccccc2F)c2cc(C4CC4)ccc2-3)n1", "note": "[Compound 46, (R)-5-(8-Cyclopropyl-6-(2′-fluorophenyl)-4-methyl-4H-benzo[f]imidazo[1,5-a][1,4]diazepin-3-yl)-3-ethyl-1,2,4-oxadiazole]", "values": [
      {"measurement": "inhibition at 10 µM", "setting": "MOR", "result": 25.1, "unit": "%"},
      {"measurement": "inhibition at 10 µM", "setting": "5-HT2B", "result": 25.1, "unit": "%"},
      {"measurement": "inhibition at 10 µM", "setting": "A1", "result": 30.9, "unit": "%"},
      {"measurement": "inhibition at 10 µM", "setting": "Alpha2C", "result": 11.9, "unit": "%"},
      {"measurement": "inhibition at 10 µM", "setting": "D2", "result": 4.73, "unit": "%"},
      {"measurement": "inhibition at 10 µM", "setting": "M5", "result": 5.69, "unit": "%"}
    ]}
  ]
}
